The text below walks through data of US6583154B1, “Compounds and methods which modulate feeding behavior and related diseases” (Amgen Inc., priority 1998, dated 2003).

Molecules are shown by their SMILES. Structures can show the parent of a compound that is named as a salt.

For orientation: melting point means the temperature of the solid-liquid transition. Take `Cc1nc(N2CCCCC2)c2[nH]c(-c3ccc(C(F)(F)F)cc3)c(C)c2n1.Cl`: the melting point is greater than 280 °C.

For `COc1ccc(-c2[nH]c3c(N4CCCCC4)nc(C)nc3c2C)cc1.Cl`, the melting point was greater than 280 °C.

On to `Cc1nc(N2CCCCC2)c2[nH]c(-c3ccccc3)c(F)c2n1.Cl`, for which the melting point is greater than 280 °C.

Consider `COc1ccc(Cc2cc3nc(C)nc(N4CCCCC4)c3[nH]2)cc1.Cl`, for which the melting point is 263 to 267 °C.

Take `Cc1nc(N2CCCCC2)c2[nH]c(Cc3ccc(F)cc3)cc2n1.Cl`: the melting point was in the range of 254 to 255 °C.

`Cc1nc(N2CCCCC2)c2[nH]c(C)c(-c3ccc(F)cc3)c2n1.Cl`: the melting point was greater than 280 °C.

Turning to `Cc1nc(N2CCCCC2)c2[nH]c(COc3ccccc3)cc2n1.Cl`, the melting point was in the range of 238 to 239 °C.

The compound `Cc1nc(N2CCCCC2)c2[nH]c(-c3ccc(F)c(F)c3)c(C)c2n1.Cl` came in with a melting point greater than 280 °C.

Turning to `Cc1nc(N2CCCCC2)c2sc(C(C)(C)C)cc2[n+]1[O-].Cl`, the melting point was 202 to 203 °C (dec.).

For `Cc1cc(N2CCCCC2)c2oc(-c3ccccc3)cc2n1.Cl`, the melting point was greater than 280 °C.

In the case of `CCCCc1cc2nc(C)cc(N3CCCCC3)c2o1.Cl`, the melting point is 172 to 173 °C.

As for `Cc1nc(N2CCCCC2)c2[nH]c(-c3ccc(F)cc3)cc2n1.Cl`, the melting point is 287 to 289 °C (dec.).

In turn, `Cl.c1csc(-c2cc3ncnc(N4CCCCC4)c3[nH]2)c1` gave a melting point greater than 280 °C.

The compound `Cl.c1coc(-c2cc3ncnc(N4CCCCC4)c3[nH]2)c1` yielded a melting point greater than 280 °C.

On to `Cc1c(-c2ccccc2)[nH]c2c(N3CCCCC3)ncnc12.Cl`, for which the melting point was in the range of 281 to 282.5 °C.

The compound `Cc1nc(N2CCCCC2)c2[nH]c(-c3ccc(N)cc3)cc2n1` (as salt: hydrochloride) yielded a melting point greater than 280 °C.

The compound `Cc1nc(N2[C@H](C)CCC[C@@H]2C)c2[nH]c(-c3ccc(F)cc3)cc2n1` (as salt: hydrochloride) (hydrate or solvate) came in with a melting point greater than 275 °C.

`CC(C)Cc1nc(N2CCCCC2)c2[nH]c(-c3ccccc3)cc2n1` (as salt: hydrochloride) (hydrate or solvate): the melting point fell in the range of 226 to 229.5 °C.

As for `COc1nc(N2CCCCC2)c2[nH]c(-c3ccccc3)cc2n1` (as salt: hydrochloride) (hydrate or solvate), the melting point was 270 to 276 °C.

Compound `CNc1nc(N2CCCCC2)c2[nH]c(-c3ccccc3)cc2n1` (as salt: hydrochloride) (hydrate or solvate) returned a melting point of 195 to 200 °C.

With `c1ccc(-c2cc3nc(N4CCN(c5ccccc5)CC4)nc(N4CCCCC4)c3[nH]2)cc1` (as salt: hydrochloride) (hydrate or solvate), the melting point was in the range of 267.5 to 270 °C.

`c1ccc(-c2cc3nc(N4CCCC4)nc(N4CCCCC4)c3[nH]2)cc1` (as salt: hydrochloride) (hydrate or solvate): the melting point is greater than 272 °C.

Compound `Cc1nc(N2CC=CCC2)c2sc(-c3ccccc3)cc2n1` (as salt: hydrochloride) (hydrate or solvate) yielded a melting point of 279 to 281 °C.

Consider `Cc1nc(N2CCCCC2)c2oc(-c3ccccc3)cc2n1` (as salt: hydrochloride) (hydrate or solvate), for which the melting point is greater than 290 °C.

The compound `Cc1nc(N2CC=CC2)c2[nH]c(-c3ccccc3)cc2n1` (as salt: hydrochloride) (hydrate or solvate) [Example 61, 2-Methyl-6-phenyl-4-(pyrrolinyl)pyrrolo[3,2-d]pyrimidine Hydrochloride Monohydrate] gave a melting point of 278 to 278.3 °C.

For the compound `Cc1nc(N2CCCCC2C)c2[nH]c(-c3ccccc3)cc2n1` (centres unmarked) (as salt: hydrochloride) (hydrate or solvate) [Example 63, 2-Methyl-6-phenyl-4-(2-methylpiperidinyl)pyrrolo(3,2-d)pyrimidine Hydrochloride Monohydrate], the melting point was in the range of 268 to 269 °C.

`CCC1CCCCN1c1nc(C)nc2cc(-c3ccccc3)[nH]c12` (centres unmarked) (as salt: hydrochloride) (hydrate or solvate) [Example 64, 2-Methyl-6-phenyl-4-(2-ethylpiperidinyl)pyrrolo[3,2-d]pyrimidine Hydrochloride Hydrate] registered a melting point of 228 to 229 °C.

In the case of `Nc1nc(N2CCCCC2)c2[nH]c(-c3ccccc3)cc2n1` (as salt: hydrochloride) (hydrate or solvate) [Example 66e, 6-Phenyl-4-piperidylpyrrolo[3,2-d]pyrimidine-2-yl Amine Hydrochloride Hydrate], the melting point is > 300 °C (dec.).

In the case of `Cc1nc(N2CCCCC2)c2[nH]c(-c3cccc(N)c3)cc2n1` (as salt: hydrochloride) (hydrate or solvate) [Example 187, 3-(2-Methyl-4-piperidylpyrrolo[4,5-d]pyrimidin-6-yl)phenylamine Hydrochloride Monohydrate], the melting point is greater than 275 °C.

For `Cc1nc(N2CCCC2)c2[nH]c(-c3ccccc3)cc2n1` (as salt: hydrochloride) (hydrate or solvate) [Example 193, 2-Methyl-6-phenyl-4-pyrrolidinylpyrrolo[3,2-d]pyrimidine Hydrochloride Monohydrate], the melting point is greater than 296 °C.

The compound `Cc1nc(NC[C@H]2CC[C@H](CNS(=O)(=O)c3cccc4ccccc34)CC2)c2[nH]c(-c3ccccc3)cc2n1` (as salt: hydrochloride) (hydrate or solvate) [Example 194, trans-[(4-{[(2-Methyl-6-phenylpyrrolo[2,3-e]pyrimidin-4-yl)amino]methyl}cyclohexyl)methyl](naphthylsulfonyl)amine Hydrochloride Hydrate] came in with a melting point of 165 to 170 °C.

`CCCc1nc(N2CCCCC2)c2[nH]c(-c3ccccc3)cc2n1` (as salt: hydrochloride) (hydrate or solvate) [Example 196c, 6-Phenyl-4-piperidyl-2-propylpyrrolo[3,2-d]pyrimidine Hydrochloride Monohydrate] came in with a melting point of 258 to 262.5 °C.

`Cc1nc(N2CC=CC2)c2[nH]c(-c3cccc(C(F)(F)F)c3)cc2n1` (as salt: hydrochloride) (hydrate or solvate) [Example 197d, 2-Methyl-4-(3-pyrrolinyl)-6-[3-(trifluoromethyl)phenyl]pyrrolo[3,2-d]pyrimidine Hydrochloride Monohydrate] returned a melting point greater than 270 °C.

In turn, `Cc1nc(N2CC=CC2)c2[nH]c(-c3cccc(Cl)c3)cc2n1` (as salt: hydrochloride) (hydrate or solvate) [Example 198, 6-(3-Chlorophenyl)-2-methyl-4-(3-pyrrolinyl)pyrrolo[3,2-d]pyrimidine Hydrochloride Hydrate] showed a melting point of 287.5 to 293 °C.

`CCc1nc(N2CCc3ccccc3C2)c2[nH]c(-c3ccccc3)cc2n1` (as salt: hydrochloride) (hydrate or solvate) [Example 202, 2-Ethyl-6-phenyl-4-(2-1,2,3,4-tetrahydroisoquinolyl)pyrrolo[3,2-d]pyrimidine Hydrochloride Monohydrate] had a melting point of 170 to 171.5 °C.

`CN(C)c1nc(N2CCCCC2)c2[nH]c(-c3ccccc3)cc2n1` (as salt: hydrochloride) (hydrate or solvate) [Example 203, Hydrochloride Hydrate]: the melting point was greater than 300 °C.

In the case of `Fc1ccc(-c2cc3nc(C4CC4)nc(N4CCCCC4)c3[nH]2)cc1` (as salt: hydrochloride) (hydrate or solvate) [Example 209c, 2-Cyclopropyl-6-(4-fluorophenyl)-4-piperidylpyrrolo[3,2-d]pyrimidine Hydrochloride Hydrate], the melting point is greater than 280 °C.

Regarding `Cc1nc(N2CCc3ccccc32)c2[nH]c(-c3ccccc3)cc2n1` (as salt: hydrochloride) (hydrate or solvate) [Example 215, 4-Indolinyl-2-methyl-6-phenylpyrrolo[3,2-d]pyrimidine Hydrochloride Hydrate], the melting point was greater than 300 °C.

As for `Cc1nc(N2CC=CC2)c2oc(-c3ccccc3)cc2n1` (as salt: hydrochloride) (hydrate or solvate) [Example 216c, 2-Methyl-6-phenyl-4-(3-pyrrolinyl)furano[3,2-d]pyrimidine Hydrochloride Hydrate], the melting point is 279 to 280 °C.

In turn, `Cc1nc(N2CCCCC2)c2sc(-c3ccc(F)cc3)cc2n1` (as salt: hydrochloride) (hydrate or solvate) [Example 217, 6-(4-Fluorophenyl)-2-methyl-4-piperidylthiopheno[3,2-d]pyrimidine Hydrochloride Hydrate] yielded a melting point of 285 to 287 °C.

Compound `Cc1nc(-n2cccn2)c2[nH]c(-c3ccccc3)cc2n1` (as salt: hydrochloride) (hydrate or solvate) [Example 218, 2-Methyl-6-phenyl-4-pyrazolypyrrolo[3,2-d]pyrimidine Hydrochloride Hydrate] came in with a melting point of 253 to 254 °C.

In the case of `Cc1nc(N2C(C)C=CC2C)c2[nH]c(-c3ccccc3)cc2n1` (centres unmarked) (as salt: hydrochloride) (hydrate or solvate) [Example 220, 4-(2,5-Dimethyl(3-pyrrolinyl)-2-methyl-6-phenylpyrrolo[3,2-d]pyrimidine Hydrochloride Hydrate], the melting point is 242 to 243 °C.

Turning to `Cc1nc(N2CCc3ccccc3C2)c2sc(-c3ccccc3)cc2n1` (as salt: hydrochloride) (hydrate or solvate) [Example 221b, 2-Methyl-6-phenyl-4-[2-1,2,3,4-tetrahydroisoquinolyl)thiopheno[3,2-d]pyrimidine Hydrochloride Hydrate], the melting point is 263 to 265 °C.

Consider `Cc1nc(N2CCN(S(=O)(=O)c3ccccc3)CC2)c2[nH]c(-c3ccccc3)cc2n1` (as salt: hydrochloride) (hydrate or solvate) [Example 227, 1-(2-Methyl-6-phenylpyrrolo[2,3-e]pyrimidin-4-yl(phenylsulfonyl)piperazine Hydrochloride Monohydrate], for which the melting point lay in the range of 242 to 243 °C.
